Test in all cases: relative viability (nuclei count vs DMSO), 5 days (fraction); higher = more cells survive
Compound in the assay “BAM7 + Bortezomib”: CCOC1=CC=CC=C1N=NC2=C(NN(C2=O)C3=NC(=CS3)C4=CC=CC=C4)C [BAM7] + CC(C)C[C@H](NC(=O)[C@H](Cc1ccccc1)NC(=O)c1cnccn1)B(O)O [Bortezomib] (partner 0.002 µM)
The method in brief:
(§1)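 Five library-drug doses in √10 steps were combined with a fixed anchor-drug dose, or a single drug was given alone, by pin tool to lung cancer cell lines in 1536-well plates the day after seeding. Nuclei were stained and counted after 5 days. Relative viability is the nuclei count in treated wells over that in vehicle wells, taken as the median of duplicate plates.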

Compound in the assay “BAM7 + Pictilisib”: CCOC1=CC=CC=C1N=NC2=C(NN(C2=O)C3=NC(=CS3)C4=CC=CC=C4)C [BAM7] + CS(=O)(=O)N1CCN(Cc2cc3nc(-c4cccc5[nH]ncc45)nc(N4CCOCC4)c3s2)CC1 [Pictilisib] (partner 1 µM)
The method in brief: as §1

Compound in the assay “BAM7 + Olaparib”: CCOC1=CC=CC=C1N=NC2=C(NN(C2=O)C3=NC(=CS3)C4=CC=CC=C4)C [BAM7] + O=C(c1cc(Cc2n[nH]c(=O)c3ccccc23)ccc1F)N1CCN(C(=O)C2CC2)CC1 [Olaparib] (partner 8 µM)
In outline:
as §1

Compound in assay [1]: CCn1c(-c2nonc2N)nc2c(C#CC(C)(C)O)ncc(OC[C@H]3CCCNC3)c21 + Cc1nc(Nc2ncc(C(=O)Nc3c(C)cccc3Cl)s2)cc(N2CCN(CCO)CC2)n1 [Dasatinib] (partner 0.075 µM)
The method in brief:
as §1

Regarding ChaGo-K-1, the relative viability was 0.861 in the assay with BAM7 + Bortezomib (first compound 0.5 µM); 1.09 with BAM7 + Bortezomib (first compound 5 µM); 1.14 with BAM7 + Bortezomib (first compound 15.81 µM); 0.969 with BAM7 + Bortezomib (first compound 50 µM); 0.647 in the assay with BAM7 + Pictilisib (first compound 0.5 µM); 0.878 with BAM7 + Pictilisib (first compound 5 µM). Moreover, the relative viability with BAM7 + Pictilisib (first compound 15.81 µM) was found to be 0.789; with BAM7 + Pictilisib (first compound 50 µM) it was 0.929; with BAM7 + Olaparib (first compound 0.5 µM), 0.377; in the assay with BAM7 + Olaparib (first compound 5 µM), 0.377; in the assay with BAM7 + Olaparib (first compound 15.81 µM), 0.292; with BAM7 + Olaparib (first compound 50 µM) it was 0.396. Besides, the relative viability in assay [1] (first compound 0.01 µM) amounted to 0.621; in assay [1] (first compound 0.03162 µM) it was 0.636; in assay [1] (first compound 0.1 µM), 0.55; in assay [1] (first compound 0.3162 µM), 0.58; in assay [1] (first compound 1 µM) it was 0.6.

In the case of EBC-1, the relative viability in the assay with BAM7 + Bortezomib (first compound 0.5 µM) came to 0.497; with BAM7 + Bortezomib (first compound 5 µM), 0.503; with BAM7 + Bortezomib (first compound 15.81 µM), 0.531; with BAM7 + Bortezomib (first compound 50 µM), 0.574; with BAM7 + Pictilisib (first compound 0.5 µM), 0.359; with BAM7 + Pictilisib (first compound 5 µM) it was 0.375. In addition, the relative viability with BAM7 + Pictilisib (first compound 15.81 µM) came out at 0.328; with BAM7 + Pictilisib (first compound 50 µM), 0.307; with BAM7 + Olaparib (first compound 0.5 µM), 0.712; with BAM7 + Olaparib (first compound 5 µM), 0.644; with BAM7 + Olaparib (first compound 15.81 µM), 0.626; in the assay with BAM7 + Olaparib (first compound 50 µM), 0.763.

As to EKVX, the relative viability with BAM7 + Bortezomib (first compound 0.5 µM) is 1.2; with BAM7 + Bortezomib (first compound 5 µM) it was 1.15; with BAM7 + Bortezomib (first compound 15.81 µM) it was 0.758; with BAM7 + Bortezomib (first compound 50 µM), 0.986; with BAM7 + Pictilisib (first compound 0.5 µM) it was 0.458; in the assay with BAM7 + Pictilisib (first compound 5 µM), 0.512. Further, the relative viability is 0.335 in the assay with BAM7 + Pictilisib (first compound 15.81 µM); 0.415 in the assay with BAM7 + Pictilisib (first compound 50 µM); 0.863 in the assay with BAM7 + Olaparib (first compound 0.5 µM); 0.929 in the assay with BAM7 + Olaparib (first compound 5 µM); 0.839 in the assay with BAM7 + Olaparib (first compound 15.81 µM); 0.788 with BAM7 + Olaparib (first compound 50 µM). Besides, the relative viability in assay [1] (first compound 0.01 µM) was determined as 0.508; in assay [1] (first compound 0.03162 µM), 0.629; in assay [1] (first compound 0.1 µM), 0.533; in assay [1] (first compound 0.3162 µM), 0.568; in assay [1] (first compound 1 µM) it was 0.525.

Take EMC-BAC-2: the relative viability with BAM7 + Bortezomib (first compound 0.5 µM) stood at 1.04; in the assay with BAM7 + Bortezomib (first compound 5 µM) it was 1.16; with BAM7 + Bortezomib (first compound 15.81 µM), 1.11; with BAM7 + Bortezomib (first compound 50 µM), 1.17; with BAM7 + Pictilisib (first compound 0.5 µM), 0.521; in the assay with BAM7 + Pictilisib (first compound 5 µM) it was 0.542. The relative viability amounted to 0.595 with BAM7 + Pictilisib (first compound 15.81 µM); 0.559 in the assay with BAM7 + Pictilisib (first compound 50 µM); 0.485 with BAM7 + Olaparib (first compound 0.5 µM); 0.476 with BAM7 + Olaparib (first compound 5 µM); 0.469 with BAM7 + Olaparib (first compound 15.81 µM); 0.565 with BAM7 + Olaparib (first compound 50 µM). The relative viability in assay [1] (first compound 0.01 µM) is 0.302; in assay [1] (first compound 0.03162 µM) it was 0.29; in assay [1] (first compound 0.1 µM), 0.333; in assay [1] (first compound 0.3162 µM), 0.297; in assay [1] (first compound 1 µM), 0.34.

With EPLC-272H, the relative viability in the assay with BAM7 + Bortezomib (first compound 0.5 µM) worked out at 0.893; with BAM7 + Bortezomib (first compound 5 µM), 0.969; in the assay with BAM7 + Bortezomib (first compound 15.81 µM) it was 0.827; in the assay with BAM7 + Bortezomib (first compound 50 µM), 0.942; with BAM7 + Pictilisib (first compound 0.5 µM), 0.358; with BAM7 + Pictilisib (first compound 5 µM) it was 0.327. Further, the relative viability with BAM7 + Pictilisib (first compound 15.81 µM) worked out at 0.323; with BAM7 + Pictilisib (first compound 50 µM), 0.347; in the assay with BAM7 + Olaparib (first compound 0.5 µM), 0.465; with BAM7 + Olaparib (first compound 5 µM), 0.935; in the assay with BAM7 + Olaparib (first compound 15.81 µM), 0.594; in the assay with BAM7 + Olaparib (first compound 50 µM), 0.651. Also, the relative viability stood at 0.357 in assay [1] (first compound 0.01 µM); 0.413 in assay [1] (first compound 0.03162 µM); 0.382 in assay [1] (first compound 0.1 µM); 0.334 in assay [1] (first compound 0.3162 µM); 0.397 in assay [1] (first compound 1 µM).

For H3255, the relative viability with BAM7 + Bortezomib (first compound 0.5 µM) was 0.674; with BAM7 + Bortezomib (first compound 5 µM), 0.798; in the assay with BAM7 + Bortezomib (first compound 15.81 µM), 0.7; with BAM7 + Bortezomib (first compound 50 µM), 0.624; in the assay with BAM7 + Pictilisib (first compound 0.5 µM), 0.544; with BAM7 + Pictilisib (first compound 5 µM), 0.652. The relative viability with BAM7 + Pictilisib (first compound 15.81 µM) stood at 0.568; with BAM7 + Pictilisib (first compound 50 µM) it was 0.579; in the assay with BAM7 + Olaparib (first compound 0.5 µM) it was 0.597; with BAM7 + Olaparib (first compound 5 µM) it was 0.666; with BAM7 + Olaparib (first compound 15.81 µM) it was 0.417; with BAM7 + Olaparib (first compound 50 µM) it was 0.405. Also, the relative viability in assay [1] (first compound 0.01 µM) stood at 0.323; in assay [1] (first compound 0.03162 µM), 0.412; in assay [1] (first compound 0.1 µM) it was 0.378; in assay [1] (first compound 0.3162 µM) it was 0.284; in assay [1] (first compound 1 µM), 0.305.

For the cell line HARA, the relative viability in the assay with BAM7 + Bortezomib (first compound 0.5 µM) was 1.14; with BAM7 + Bortezomib (first compound 5 µM), 1.26; with BAM7 + Bortezomib (first compound 15.81 µM) it was 1.09; in the assay with BAM7 + Bortezomib (first compound 50 µM), 1.14; with BAM7 + Pictilisib (first compound 0.5 µM), 0.327; with BAM7 + Pictilisib (first compound 5 µM), 0.267. For the same cell line, the relative viability worked out at 0.334 with BAM7 + Pictilisib (first compound 15.81 µM); 0.264 with BAM7 + Pictilisib (first compound 50 µM); 0.96 with BAM7 + Olaparib (first compound 0.5 µM); 0.838 with BAM7 + Olaparib (first compound 5 µM); 0.827 with BAM7 + Olaparib (first compound 15.81 µM); 0.809 with BAM7 + Olaparib (first compound 50 µM). Also, the relative viability was determined as 0.239 in assay [1] (first compound 0.01 µM); 0.239 in assay [1] (first compound 0.03162 µM); 0.245 in assay [1] (first compound 0.1 µM); 0.218 in assay [1] (first compound 0.3162 µM); 0.288 in assay [1] (first compound 1 µM).

Regarding HCC-15, the relative viability with BAM7 + Bortezomib (first compound 0.5 µM) was determined as 1.02; with BAM7 + Bortezomib (first compound 5 µM) it was 1.06; with BAM7 + Bortezomib (first compound 15.81 µM) it was 1; with BAM7 + Bortezomib (first compound 50 µM) it was 0.934; in the assay with BAM7 + Pictilisib (first compound 0.5 µM), 0.818; with BAM7 + Pictilisib (first compound 5 µM), 0.802. Further, the relative viability with BAM7 + Pictilisib (first compound 15.81 µM) was found to be 0.764; in the assay with BAM7 + Pictilisib (first compound 50 µM) it was 0.747; with BAM7 + Olaparib (first compound 0.5 µM), 0.849; in the assay with BAM7 + Olaparib (first compound 5 µM), 0.695; with BAM7 + Olaparib (first compound 15.81 µM), 0.687; with BAM7 + Olaparib (first compound 50 µM) it was 0.728. The relative viability in assay [1] (first compound 0.01 µM) turned out to be 0.57; in assay [1] (first compound 0.03162 µM), 0.548; in assay [1] (first compound 0.1 µM), 0.651; in assay [1] (first compound 0.3162 µM), 0.482; in assay [1] (first compound 1 µM), 0.532.

For the origin of these results see the supplement of paper PMC10307832.
